Laboratory results as given in patent US11517630B2, “Methods and compositions for regulating gene expression” (Children's Medical Center Corporation, priority 2005, dated 2022).

What was measured:
[1] = tested on: mutant (TGA-containing) Apo CII-luc fusion reporter in FG293 cells; assay: In vitro luciferase assay: suppression of translational termination in FG293 cells transduced with mutant Apo CII-luc lentiviral vector; format: cell-based, human; settings: for fold of induction: 5 μg/ml; for % of wild-type luc activity: 200 μg/ml; for ability to induce luciferase expression (suppression of translation termination codons): 0 to 1000 μg/ml, mutant luc fusion
Method: FG 293 cells were infected with viral supernatants at a multiplicity of infection (MOI) of 10. After 72 hours, cells were then split into six well plates, exposed to various concentrations of G1418 for 48 hours, and lysed. Protein extracts were then assayed for luciferase expression using the Promega Luciferase Assay System.
(§1) To facilitate quantitative measurement of both spontaneous read-through of specific termination codon configurations and the ability of specific antibiotics to suppress translational termination, a luciferase (luc) reporter gene was generated in which the first five codons of either WT mutant MIA-containing) Apo CII sequences were fused to luc coding sequences, and the resulting sequences were introduced into a standard lentiviral vector (FIG. 1B). High-titer virus generated from the vectors was used to infect human FG293 cells at a multiplicity of infection (MOI) of 10, so that virtually 100% of the cells would be stably transduced. Cells were then split into six well plates, exposed to varying concentrations of the aminoglycoside (G418) for 48 hours, and then lysed and assayed for luc expression. […] In contrast, cells transduced by vectors encoding the mutant Apo CII-luc expressed only low levels of luc in the absence of G418 (approximately 1.2% the activity of the wild type), but could be induced to strongly express luc by the addition of the antibiotic (FIG. 2B). […] The efficiency of suppression of translational termination was extremely high (over 70% of the level of wild-type reporter expression observed in the absence of the nonsense codon).
as §1, with “(TGA-containing)” for “MIA-containing)”
One of the expected characteristics of the gene regulation system described here is the ability to rapidly achieve induction of transgene expression, since (as indicated above) transcription is constitutive and therefore induction of gene expression should depend only upon the restoration of fall translation of the transgene coding sequences. To address this issue, we employed the transduced cells described above, and measured the level of reporter activity after G418 administration (200 μg/ml) as a function of time.
Compounds were tested in vitro using stable cell lines generated via the infection of FG293 cells with lentiviral vectors carrying either WT or mutant Apo CII luc sequences. The aminoglycosides were tested over a concentration range from 0 to 1000 μg/ml.

[2] = tested on: mutant Apo CII-luc in murine lung tissue; assay: In vivo luc induction in murine lung after intratracheal delivery of lentiviral vector, bioluminescent imaging; settings: 1.5 mg daily, 4 days, average of five mice
Method: For intratracheal infections, nude mice were anaesthesized and then 100 μl of concentrated virus was delivered upon normal inhalation via a blunt-ended 16-gauge needle inserted in such a way to depress the tongue.
(§2) Prior to imaging, mice were anaesthesized and injected with 150 μl luciferin (30 mg/ml) (Xenagen, Alameda, Calif.). A series of bioluminescent images were then taken for up to 30 minutes using the Xenogen IVIS imager. Photon output was quantified at the plateau of the time-course using the Living Image software. Induction in fold was calculated based on the photon output in the animals before and after drug treatment.
To further establish the general applicability of the gene […] system, we next asked whether gene regulation at the level of translation could be readily accomplished in the in vivo setting. In a first animal model, intratracheal delivery (see Materials and Methods) of a lentiviral vector carrying WT or mutant Apo CII-luc sequences was utilized in order to assess the ability to regulate luc expression in murine lung tissue via aminoglycoside administration. Five days post transduction, prior to administration of aminoglycoside, mice were imaged for luc expression using the Xenogen IVIS non-invasive bioluminescent imager (29). […]

[3] = tested on: mutant Apo CII-luc in hematopoietic cells; assay: In vivo luc induction in murine bone marrow transplantation model (transduced hematopoietic stem cells); set-up: species or system mice; settings: 1.5 mg/day for 3.5 days, four mutant luc animals
Method: Purified HSC were obtained by isolating bone marrow SP cells using fluorescence activated cell sorting after Hoechst staining as previously described (10), with some modifications. Briefly, femurs and tibias from mice were homogenized, and the bone marrow cells were filtered through 70 μm nylon mesh and washed in PBS containing 2% FCS and 0.5% Sodium Azide. Cells were then resuspended in HBSS containing 2% FCS, 10 mM Hepes buffer and antibiotics (all from Gibco, Grand Island, N.Y.) and 8.8 μg/ml Hoechst 33342 (Molecular Probes, Eugene, Oreg.) at a cell concentration of 5×10^6/ml. Following incubation for 90 min at 37° C., cells were washed once and further purified by using a gradient of Ficoll-Paque™ Plus (Amersham Biosciences AB, Uppsala) to remove red blood cells. Purified marrow cells were then sorted using a MoFlo high speed cell sorter (DakoCytomation, Fort Collins, Col.). Except when specified, cells were kept on ice during the entire procedure. […]
as §2, with “A series of bioluminescent images were then taken for up to 30 minutes using the Xenogen IVIS imager.” left out, “treatment. […]” for “treatment.”

[4] = Acute toxicity at concentrations used to regulate gene expression in cell lines and animals
Excerpt: Overall, the system described here represents a remarkably simple means of controlling the expression of genes in mammalian cells that should have immediate experimental applications. While the range of inducibility obtainable with the system (in some cases over 60 fold) is considerably more limited than that of gone regulation systems based on the control of transcription or RNA self-cleavage, the ability to fine-tune the basal and induced levels of gene expression via use of specific termination codons and adjacent sequences may mitigate this limitation in many experimental situations. […] Similarly, others have shown that G418 can be used at relatively non-toxic doses to suppress nonsense mutations in cell lines and in animal models of inherited disease (25, 35). […] The availability of such molecules for experimental studies in the future should further expand the utility of translation-based gene regulation strategies.

[5] = mice; cited from earlier work

CC(C)(C)c1ccc(OCC(=O)Nc2cccc(C(=O)O)c2)cc1 [3-[2-(4-tert-butyl-phenoxyl)-acetylamino]-benzoic acid]
fold of induction ([1]; FG293 cells): about 14%

CCC(C)(C)c1ccc(OCC(=O)Nc2cccc(C(=O)O)c2)cc1 [3-{2-[4-(1,1-dimethyl-propyl)-phenoxyl]acetylamino}-benzoic acid]
fold of induction ([1]; FG293 cells): about 24%

CN[C@@H]1[C@@H](O)[C@@H](O[C@@H]2[C@@H](O)[C@H](O[C@H]3O[C@H]([C@@H](C)O)[C@@H](O)[C@H](O)[C@H]3N)[C@@H](N)C[C@H]2N)OC[C@]1(C)O [G418]
% of wild-type luc activity ([1]; 1 hour post induction): 1.4% | % of wild-type luc activity ([1]; 6 hours post induction): 6.1% | % of wild-type luc activity ([1]; 12 hours post induction): 25.3% | % of wild-type luc activity ([1]; 24 hours post induction): 38.1% | % of wild-type luc activity ([1]; 48 hours post exposure): 51.3% | efficiency of suppression of translational termination, % of wild-type reporter expression ([1]; 300 μg/ml, 48 hours, FG293 cells): over 70% | increase in reporter (luc) expression relative to the uninduced state, maximum induction ([1]; 300 μg/ml, 48 hours, FG293 cells, mutant Apo CII-luc): approximately 60 fold | fold induction at 200 µg/mL ([1]; Homo sapiens, 48 h, read-out: fold induction of luc (maximal induction)): 60 | luciferase expression, % of level in WT luc mice [2]: 27% | induced level, % of expression in WT luc mice [3]: ~51% | fold induction at 1.5 mg ([3]; Mus musculus, Hematopoietic stem cell, 84 h, read-out: average fold induction of luc expression): 65 | acute toxicity at concentrations used [4]: not acutely toxic

NCC[C@H](O)C(=O)N[C@@H]1C[C@H](N)[C@@H](O[C@H]2O[C@H](CN)[C@@H](O)[C@H](O)[C@H]2O)[C@H](O)[C@H]1O[C@H]1O[C@H](CO)[C@@H](O)[C@H](N)[C@H]1O [amakacin]
ability to induce luciferase expression (suppression of translation termination codons) ([1]; 48 hours, FG293 cells): only weak induction

NC[C@@H]1O[C@H](O[C@H]2[C@@H](O)[C@H](O[C@@H]3[C@@H](O)[C@H](N)C[C@H](N)[C@H]3O[C@H]3O[C@H](CO)[C@@H](O)[C@H](O)[C@H]3N)O[C@@H]2CO)[C@H](N)[C@@H](O)[C@@H]1O [paromomycin]
ability to induce luciferase expression (suppression of translation termination codons) ([1]; 48 hours, FG293 cells): only weak induction

NC[C@H]1O[C@H](O[C@H]2[C@H](O)[C@@H](O[C@H]3O[C@H](CO)[C@@H](O)[C@H](N)[C@H]3O)[C@H](N)C[C@@H]2N)[C@H](N)C[C@@H]1O [tobramycin]
ability to induce luciferase expression (suppression of translation termination codons) ([1]; 48 hours, FG293 cells): only weak induction

gentamicin
ability to induce luciferase expression (suppression of translation termination codons) ([1]; 48 hours, FG293 cells): only weak induction

gentamycin sulfate
effective dosage [5]: 17 mg/kg
